Data set [1] can be described thus: Plasma pharmacokinetics after single 40 mg oral dose (LC-MS/MS, noncompartmental). It is filed as in vivo, human. As to conditions: 40 mg single oral dose; for AUC(0-inf) / Cmax / Tmax / half-life: human, po, 40 mg. As to the method: On cycle 1 day 1, triplicate ECGs and plasma samples for PK were collected from patients ≤15 minutes prior to dosing and at 15 minutes; 30 minutes; and 1‐, 1.5‐, 2‐, 2.5‐, 3‐, 4‐, 6‐, 8‐, and 10‐hour time points after receiving a single oral dose of 40‐mg sapanisertib. The Holter recorders and ECG leads were removed from patients after collection of the 10‐hour time point ECG on day 1, following which patients were furloughed from site. Additional collections of ECGs and plasma samples for PK were conducted at 24 (cycle 1 day 2) and 48 hours (cycle 1 day 3) after dosing. After the first week, that is, cycle 1 day 8, patients had the option to continue to receive treatment with sapanisertib at a dose of 30 mg once weekly in continuous 28‐day cycles until disease progression, unacceptable toxicity, withdrawal of consent, or completion of the 12‐month maximum study duration.
Plasma samples were analyzed for sapanisertib using a validated liquid chromatography with tandem mass spectrometry method with deuterated sapanisertib used as the internal standard. Multiple reactant monitoring was performed using a positive electrospray method for the mass transitions (m/z) of 310.0 to 268.1 for sapanisertib and 317.0 to 269.1 for deuterated sapanisertib. A Shimadzu high‐pressure liquid chromatography system and Sciex API 4000 tandem mass spectrometry system were used with an Agilent Eclipse plus C18, 50 × 4.6 mm, 3.50‐µm column. For extraction, 50 µL of diluent (0.1% formic acid in acetonitrile/water, 50:50, v/v) and 20 µL of internal standard solution (0.5 µg/mL in diluent) were added to 50 µL of ethylenediaminetetraacetic acid plasma followed by vortex mixing. Plasma proteins were precipitated by adding 500 µL of 0.2% formic acid in acetonitrile followed by vortex mixing for 2 minutes and centrifugation for 5 minutes. A 40‐µL aliquot of the supernatant was transferred to a high‐pressure liquid chromatography vial containing 400 µL of reconstitution solution (10 mM ammonium formate and 10 mM citric acid in acetonitrile/water, 20:80, v/v). Injection volume was 10 µL. A gradient mobile phase (from 20% to 98%) was used, composed of mobile phase A: 0.1% formic/4 mM ammonium formate in water and mobile phase B: 0.1% formic acid and 4 mM ammonium formate in acetonitrile/water 98:2, v/v). The sapanisertib retention time was 1.7 minutes. The dynamic range of the assay was 1 to 1000 ng/mL. Assay accuracy expressed as %bias for the quality control samples ranged from –4.0% to –2.7% and assay precision expressed as percentage coefficient of variation (%CV) for quality control samples, ranged from 3.0% to 9.5% in plasma.
PK parameters were calculated by noncompartmental methods using WinNonLin Professional version 6.1 (Certara, Princeton, New Jersey). The PK analysis population was defined as all patients who received at least 1 dose of sapanisertib and had sufficient concentration‐time data to calculate ≥1 PK parameters. The safety population included all patients who received ≥1 dose of sapanisertib, according to the National Cancer Institute Common Terminology Criteria for Adverse Events, version 4.03.

Data set [2] relates to patients with advanced solid tumors. The following applies: in vivo.
Description: The relationships between concentration of sapanisertib and QTc and RR intervals were quantitatively analyzed in the PK/QTc analysis population using PK and ECG data from all patients. The data were first explored by graphical analysis, including a visual check for evidence of hysteresis. Mixed‐effects models were subsequently developed to describe the direct effect of sapanisertib on change from time‐matched baseline in RR, QTcI, and QTcF.
Standard diagnostic and goodness‐of‐fit plots were used for model evaluation and adequacy, plausibility, and precision of parameter estimates. A visual predictive check for the final model was generated to evaluate whether the model provided an accurate description of the data. The estimated parameters were reported with the standard error of the estimates as a measure of uncertainty, and nonparametric bootstrap resampling was used to construct 95%CI for the population parameters in each model. All model development was conducted with a qualified installation of the nonlinear mixed‐effects modeling software, version 7.3 (ICON Development Solutions, Hanover, Maryland). All data analyses were conducted using a qualified installation of the statistical software R.
A linear mixed‐effects model was used to characterize the direct effect of sapanisertib plasma concentration on ΔQTcI. […] The linear mixed‐effects model of sapanisertib plasma concentration versus ΔQTcI was subsequently used to predict the effect of sapanisertib on QTcI at the expected Cmax values for 4‐, 30‐, and 40‐mg sapanisertib doses. […] Model‐based simulations from the fitted model for ΔQTcI versus sapanisertib plasma concentration were used to generate CIs across the range of observed concentrations and to estimate the probability of patient ΔQTcI values exceeding 30‐ and 60‐millisecond thresholds at Cmax values corresponding to the 4‐, 30‐, and 40‐mg doses (Table 4).
Data set [3] has as its system organic cation transporter 2. The arrangement: method as in Takeda data on file. As to conditions: in vitro; ref Takeda data on file; cited from earlier work.
Details of data set [4]: method as in data on file. As to conditions: in vitro; ref data on file; cited from earlier work.

Values joined by “and” are separate entries in the source; they are usually repeats but may differ in a detail not shown here. Equal entries are not always repeated. Where two headings read alike, the source gives them in different places.

One may read the Cmax as the peak of the concentration-time curve. The Tmax is the time at which the peak concentration occurs. Usually IC50 stands for the concentration at which inhibition is half-maximal. `CC(C)n1nc(-c2ccc3oc(N)nc3c2)c2c(N)ncnc21` [sapanisertib]: in data set [1] (empty stomach), the “CL (apparent clearance), Geometric mean (%CV)” value was 16.1 L/h and 16.1 (46.3) L/h. For the same molecule, the “CL (apparent clearance), Mean (SD)” value in data set [1] (empty stomach) is 18.3 (8.5) L/h. The “CL (apparent clearance), Median (range)” value in data set [1] (empty stomach) was 18.0 (3.1–41.8) L/h. Also, the AUC(0-inf) in data set [1] (empty stomach, read-out: AUC∞, Geometric mean (%CV)) was found to be 2480 ng·h/mL; in data set [1] (empty stomach, read-out: AUC∞, Mean (SD)), 2990 ng·h/mL; in data set [1] (empty stomach, read-out: AUC∞, Median (range)), 2220 ng·h/mL. Further, the Cmax in data set [1] (empty stomach, read-out: Cmax, Geometric mean (%CV)) was 297 ng/mL; in data set [1] (empty stomach, read-out: Cmax, Mean (SD)), 337 ng/mL; in data set [1] (empty stomach, read-out: Cmax, Median (range)), 317 ng/mL. The Tmax in data set [1] (empty stomach, read-out: Tmax, Geometric mean (%CV)) turned out to be 1.73 h; in data set [1] (empty stomach, read-out: Tmax, Mean (SD)) it was 2.51 h; in data set [1] (empty stomach, read-out: Tmax, Median (range)), 1.52 h. The half-life in data set [1] (no unit in table (hours), read-out: T1/2 (terminal disposition half-life), Geometric mean (%CV) (converted)) was 9.06 h; in data set [1] (no unit in table (hours), read-out: T1/2 (terminal disposition half-life), Mean (SD) (converted)) it was 9.48 h; in data set [1] (no unit in table (hours), read-out: T1/2 (terminal disposition half-life), Median (range) (converted)), 9.07 h; in data set [1] (standard deviation 2.9 hours, read-out: Mean plasma half-life (converted)), 9.5 h. In addition, the “Estimated probability that ΔQTcF would exceed 30 milliseconds or 60 milliseconds” value in data set [2] (human) is less than 0.0001. Besides, the “Association of ΔQTcF with plasma concentration” value in data set [2] is listed as “weakly negative association”. Moreover, in data set [2], the “Association of ΔQTcI with plasma concentration” value is “weakly negative association”. Also, in data set [2], the “Association of ΔRR with plasma concentration” value was “weakly positive association”. Moreover, the IC50 in data set [3] was 1900 nM. Besides, the “Bound to human plasma proteins” value in data set [4] is listed as 70.5%.

The values are drawn from publication PMC7586797, “Phase 1 Study to Evaluate the Effect of the Investigational Anticancer Agent Sapanisertib on the QTc Interval in Patients With Advanced Solid Tumors” (Clinical Pharmacology in Drug Development, 2020).
